The values below come from US4874856A, “3-(substituted)propenyl-7-(aminothiazolylacetamido) ceph-3-em-4-carboxylic acids and esters thereof” (Bristol-Myers Company, priority 1987, dated 1989).

Assay [1] has as its system clinically important pathogens. Nature of the assay: Comparison of in vitro antibacterial activities of Compound 29 and FK-482 (Table 6). The class given is cell-based. As to conditions: Thirty-seven organisms. The text has this: Table 6 is a comparison of the in vitro antibacterial activities of Compound 29 and the vinyl homolog thereof FK-482 against clinically important pathogens. Thirty-seven organisms were more than 4-fold more susceptible to Compound 29 than to FK-482. FK-482 has the following formula and is described by Takaya, et al. in U.S. Pat. No. 4,559,334 patented Dec. 17, 1985 (filed Oct. 20, 1983). [drawing 14]
Mueller-Hinton agar Inoculum size; 10^6 cells/ml

The subject of assay [2] is Penicillin(PC)sensitive S. aureus. Description: In vitro MIC, two-fold serial agar dilution in Mueller-Hinton agar, Gp-Ia strains. The class given is cell-based. The settings on record: Staphylococcus aureus; GpIa, 5 strains; read-out: Geometric mean of MIC, GpIa. The protocol:
The in vitro antibacterial activity of the parent cephalosporanic acids of Formula I wherein R^4 is hydrogen is shown in Table 1 in terms of geometric mean of the Minimum Inhibitory Concentrations (MIC's) which were determined by the two-fold serial agar dilution method in Mueller-Hinton agar against 25 strains of test organisms in five groups.
Gp-Ia: Penicillin(PC)sensitive S. aureus
For orientation: In agar dilution the substance is mixed into plates at graded concentrations.

Structures are written as SMILES. Values after ≈ are worked out from the molar mass of the structure shown.

With `C/C=C\C1=C(C(=O)O)N2C(=O)[C@@H](NC(=O)/C(=N\O)c3csc(N)n3)[C@H]2SC1` [Compound 29, 7β-[(Z)-2-(2-aminothiazol-4-yl)-2-(hydroxyimino)acetamido]-3-[(Z)-prop-1-en-1-yl]-3-cephem-4-carboxylic acid], the “more susceptible to Compound 29 than to FK-482” value in assay [1] was “more than 4 fold”. Besides, in assay [2], the MIC amounted to 0.2 µg/mL (≈ 0.488 µM).

What is called MIC is the smallest concentration in the dilution series that meets the test's criterion for growth inhibition.
